For data set [1], the target named is b-Raf (Homo sapiens, UniProt P15056). The data set is described as follows: b-Raf biochemical assay. The note with it: read-out: b-Raf IC-50.
The target in data set [2] is c-Raf FL (Homo sapiens, UniProt P04049). The data set is described as follows: c-Raf FL biochemical assay. The settings on record: read-out: c-Raf FL IC-50.
Data set [3] has as its system Calu-6 (KRAS Q61K), HCT116 (KRAS G13D). The data set can be described thus: cell-based anti-proliferative assay, Calu-6 and HCT116. The note with it: Homo sapiens; range over Calu-6 and HCT116; read-out: IC50, inhibition of proliferation.
The test system of data set [4] is Calu-6 (KRAS Q61K) xenografts. The data set can be described thus: Calu-6 xenograft in nude mice. Format: in vivo. On the procedure:
Female nude tumor bearing Calu6 mice, n=6 per group were randomized into treatment groups on day 17 following tumor implantation, when the average tumor volume was 180 mm3. […] Dosing volume was 10 mL/kg. Tumor volumes were collected at the time of randomization and twice weekly thereafter for the study duration.
(§1) Regressions were also achieved in a second human NSCLC model, NCI-H358, at the 200 mg/kg QD dose in mice and in the human ovarian Hey-A8 xenograft at doses as low as 30 mg/kg QD in mice.

Data set [5] concerns Calu-6 (KRAS Q61K) xenografts. The data set can be described thus: Calu-6 xenograft in nude rats. The format is in vivo.
Data set [6] concerns NCI-H358 (KRAS G12C) xenografts. The data set is described as follows: NCI-H358 xenograft in mice. Format: in vivo. The protocol:
SCID beige female tumor bearing NCI-H358 mice, n=8 per group, were randomized into 3 groups 14 days post tumor cell inoculation with an average tumor volume range of 259.44-262.47 mm^3.
Tumor volumes were measured by digital caliper 3 times a week and body weights of all animals were recorded through the course of treatment.
as §1

Data set [7] concerns Hey-A8 (KRAS G12D, BRAF G464E) xenografts. The data set is described as follows: Hey-A8 ovarian xenograft in mice. The format is in vivo. On the procedure: as §1
Data set [8] deals with SKMEL30 cells (NRAS Q61K melanoma cells). The data set is described as follows: SKMEL30 NRAS-mutant melanoma xenograft in nude mice. Format: in vivo. The settings on record: for % regression: day 21 post-implant (9 days of treatment). The protocol:
[…]. Mice were randomized into treatment groups on day 12 post implantation, when the average tumor volume was ˜200 mm^3. […] Treatments began on day 12 and continued until day 21 post implantation. Tumor volume and body weights were collected at the time of randomization and twice per week for the study duration. Tumor volume was determined by measurement with calipers and calculated using a modified ellipsoid formula, where tumor volume (TV) (mm^3)=[((1×w2)×3.14159))/6], where 1 is the longest axis of the tumor and w is perpendicular to 1. Mice were monitored for tumor growth, body weight and body condition. Animal well-being and behavior were monitored twice weekly. General health of mice was monitored daily. The anti-tumor activity was determined by assessing % T/C or % regression on day 21 post-implant (9 days of treatment).

For data set [9], the system named is H727 Model. The data set is described as follows: H727 model, KRASmt NSCLC xenograft. The format is in vivo, mice. The note with it: FIGS. 15A, 15B, 15C (H358, Calu6, H727 models); H727: 100 mg/kg daily oral, 14 days.
The nature of data set [10]: tolerability in KRAS- and NRAS-mutant xenograft models (body weight). The format is in vivo. The note with it: all xenograft models. On the procedure:
as §1

The subject of data set [11] is non-small cell lung cancer (NSCLC). The data set is described as follows: Phase I dose finding study of Compound A, single agent. Format: in vivo, human. The settings on record: one NSCLC subject, 1200 mg QD, preliminary. The protocol:
Provisional doses for dose escalation can be found in the Table below. […]
In the dose expansion part, patients in Compound A single agent arm are treated with Compound A at the recommended dose and regimen selected based on the dose escalation data. This dose is expected to be safe and tolerated in adult patients in all indications included in the trial. The single agent arm consists of 3 distinct groups: KRAS- and/or BRAF-mutant NSCLC, KRAS- and/or BRAF-mutant ovarian cancer, and patients with other solid tumors (which may be advanced) harboring MAPK pathway alteration(s) such as relapsed/refractory melanoma after failure of BRAFi/MEKi combination therapy and NRAS-mutant melanoma patients.
This was further confirmed by preliminary results obtained from the clinical trial.

A short description of data set [12]: predicted human PK of Compound A.
Data set [13] is described as follows: cell-based anti-proliferative assay, melanoma and NSCLC lines. The settings on record: Homo sapiens, read-out: IC50, inhibition of proliferation.
Data set [14] deals with advanced NRAS-mutant melanoma. The settings on record: cited from earlier work.
[15] abbreviates: patients with NRAS-mutant melanoma.

Sequence of b-Raf (P15056 2-766): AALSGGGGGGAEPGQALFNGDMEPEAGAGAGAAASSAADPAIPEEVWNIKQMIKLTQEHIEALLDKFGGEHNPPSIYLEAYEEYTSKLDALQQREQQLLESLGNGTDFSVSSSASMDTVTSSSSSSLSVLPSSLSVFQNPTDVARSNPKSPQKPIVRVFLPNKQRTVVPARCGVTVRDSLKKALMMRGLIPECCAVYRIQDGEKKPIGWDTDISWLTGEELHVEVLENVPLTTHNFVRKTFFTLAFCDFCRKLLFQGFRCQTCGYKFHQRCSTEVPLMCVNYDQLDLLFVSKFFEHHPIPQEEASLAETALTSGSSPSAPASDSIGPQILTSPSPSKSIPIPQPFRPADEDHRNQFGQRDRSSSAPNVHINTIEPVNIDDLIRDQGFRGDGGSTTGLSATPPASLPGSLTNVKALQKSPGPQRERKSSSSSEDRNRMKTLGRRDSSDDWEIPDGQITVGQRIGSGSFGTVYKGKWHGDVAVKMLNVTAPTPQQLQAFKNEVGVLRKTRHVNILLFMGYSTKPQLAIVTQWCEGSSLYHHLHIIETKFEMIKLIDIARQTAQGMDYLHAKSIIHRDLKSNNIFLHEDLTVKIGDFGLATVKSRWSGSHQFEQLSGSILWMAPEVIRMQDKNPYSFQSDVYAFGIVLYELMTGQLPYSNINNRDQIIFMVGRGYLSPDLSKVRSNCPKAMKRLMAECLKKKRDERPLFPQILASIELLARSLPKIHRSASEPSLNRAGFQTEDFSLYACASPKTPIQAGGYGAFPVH
Sequence of c-Raf FL (P04049 whole entry): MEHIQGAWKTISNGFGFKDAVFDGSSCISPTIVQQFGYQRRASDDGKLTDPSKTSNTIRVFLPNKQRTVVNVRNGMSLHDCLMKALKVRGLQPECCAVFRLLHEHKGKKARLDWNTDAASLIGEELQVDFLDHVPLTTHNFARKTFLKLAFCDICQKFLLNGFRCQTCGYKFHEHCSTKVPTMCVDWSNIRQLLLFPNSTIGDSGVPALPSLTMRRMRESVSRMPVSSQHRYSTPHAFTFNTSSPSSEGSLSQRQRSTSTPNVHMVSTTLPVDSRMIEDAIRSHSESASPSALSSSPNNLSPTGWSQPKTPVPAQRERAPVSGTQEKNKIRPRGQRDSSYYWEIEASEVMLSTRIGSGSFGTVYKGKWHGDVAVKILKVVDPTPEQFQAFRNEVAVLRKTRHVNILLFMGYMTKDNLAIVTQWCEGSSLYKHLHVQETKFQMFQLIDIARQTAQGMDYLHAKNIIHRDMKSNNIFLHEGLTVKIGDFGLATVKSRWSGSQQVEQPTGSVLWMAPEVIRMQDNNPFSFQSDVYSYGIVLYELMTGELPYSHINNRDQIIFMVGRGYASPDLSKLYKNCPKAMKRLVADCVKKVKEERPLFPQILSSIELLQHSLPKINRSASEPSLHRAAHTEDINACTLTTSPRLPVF

For `Cc1ccc(NC(=O)c2ccnc(C(F)(F)F)c2)cc1-c1cc(OCCO)nc(N2CCOCC2)c1` [COMPOUND A, N-(3-(2-(2-hydroxyethoxy)-6-morpholinopyridin-4-yl)-4-methylphenyl)-2-(trifluoromethyl)isonicotinamide], the IC50 in data set [1] is 0.00073 µM; in data set [2], 0.0002 µM; in data set [3], 0.2 to 1.2 µM; in data set [13], 0.2 to 1.2 µM. For the same compound, the anti-tumor effect entry was “Tumor stasis” in data set [4] (30 mg/kg QD, mice); “regressions” in [4] (100, 200, and 300 mg/kg once daily (QD), nude mice); “tumor regression” in [4] (Calu-6 xenograft, dose not stated); “tumor regressions” in data set [4] (Calu-6 xenograft, dose not stated, listed as Compound A); “Tumor stasis” in data set [5] (35 mg/kg QD, rats); “regressions” in [5] (75 and 150 mg/kg QD, nude rats). The anti-tumor effect result in data set [6] (200 mg/kg QD, mice) is given as “Regressions”; in [6] (NCI-H358 xenograft, dose not stated), “tumor regression”; in data set [6] (NCI-H358 xenograft, dose not stated, listed as Compound A), “tumor regressions”; in data set [7] (Hey-A8 xenograft, dose not stated), “tumor regression”; in [7] (Hey-A8 xenograft, dose not stated, listed as Compound A), “tumor regressions”; in data set [7] (doses as low as 30 mg/kg QD, mice), “Regressions”. For the same compound, the anti-tumor effect result in [8] (SK-MEL-30 melanoma model, dose not stated) is “tumor regression”. Further, the results for the “% regression” value in [8] (25 mg/kg bid) and in data set [8] (100 mg/kg bid) were 48% and 59%, respectively. For the same compound, in [8] (25 and 100 mg/kg bid, body weight, toxicity signs, mortality), the tolerability entry is “well tolerated”. Moreover, the “single agent activity in KRASmt NSCLC models” value in [9] is given as “showed single agent activity”. For the same compound, in data set [10], the “tolerability judged by body weight loss” value is given as “well tolerated”. In addition, the “partial response according to RECIST” value in data set [11] is given as −35%. Further, the predicted half-life in data set [12] was about 9 h.

Take `Cn1cnc2c(F)c(Nc3ccc(Br)cc3F)c(C(=O)NOCCO)cc21` [binimetinib]: the “HR for PFS, in favor of binimetinib” value in data set [14] (binimetinib vs. dacarbazine) was 0.62 (0.47-0.80). Also, in data set [14] (setting [15]), the “discontinuation rate as a result of adverse events suspected to be related to study drug” value was 20%, the “median PFS (95% CI)” value is on record as 2.8 (95% CI: 2.8-3.6), the overall response rate is given as 15% and the “overall survival (95% CI)” value is on record as 11.0 (95% CI: 8.9-13.6) months.

Regarding `CN(C)/N=N/c1[nH]cnc1C(N)=O` [dacarbazine], the “discontinuation rate as a result of adverse events suspected to be related to study drug” value in data set [14] (setting [15]) was 5%.

The values are drawn from patent US20190175609A1, “THERAPEUTIC USES OF A C-RAF INHIBITOR” (Novartis AG, priority 2016, published 2019).
